{"source": "patent US5164298A", "about": "(priority 1988, dated 1992)", "key": {"[1]": {"biological_target": "T1, VT2 (Escherichia coli, UniProt Q07871)", "format": "binding, E. coli"}, "[2]": {"biological_target": "T2, Shiga toxin (Shigella dysenteriae, UniProt Q7BQ98)", "T2 sequence (Q7BQ98 whole entry, looked up)": "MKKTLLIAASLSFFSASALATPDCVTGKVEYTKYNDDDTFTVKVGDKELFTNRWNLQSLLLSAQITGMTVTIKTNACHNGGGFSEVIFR", "details": "cited from earlier work"}, "[3]": {"biological_target": "T1, VT2", "format": "cell-based, E. coli"}, "[4]": {"biological_target": "verocytotoxin 1 (Bacteriophage H30, UniProt P69178)", "sequence (P69178 whole entry, looked up)": "as the sequence (Q7BQ98 whole entry, looked up) above"}, "[5]": {"biological_target": "T2, Shiga toxin", "details": "cited from earlier work", "remark": "listed apart in the source"}, "[6]": {"biological_target": "VT1 toxin (Bacteriophage H30, UniProt P69178)", "sequence (P69178 whole entry, looked up)": "as the sequence (Q7BQ98 whole entry, looked up) above"}, "[7]": {"details": "natural verocytotoxin, glycolipid dotted at 0.01-50 nmol"}, "[8]": {"details": "purified natural VT1, tlc or dot blot, antiverocytotoxin and immunoperoxidase conjugate"}}, "note": "Entries after “also recorded” stand apart in the source; their conditions may differ. Where two headings read alike, the source gives them in different places.", "data": [{"compound": "CCCCCCCCCCCCCC=CC(O)C(COC1OC(CO)C(OC2OC(CO)C(OC3OC(CO)C(O)C(OC4OC(CO)C(O)C(O)C4NC(C)=O)C3O)C(O)C2O)C(O)C1O)NC(=O)CCCCCCCCCCCCCCC", "note": "(stereo not drawn) [GbOse4 cer, globotetraosyl ceramide]", "values": [{"measurement": "VT2 binding to glycolipid", "setting": "[1]", "value": "no binding; also recorded: does not bind"}, {"measurement": "Shiga toxin binding to glycolipid", "setting": "[2]", "value": "residual binding"}, {"measurement": "VT2 binding by liposomal adsorption", "setting": "[3]", "value": "at least minimal"}, {"measurement": "verocytotoxin binding above background (125I-Protein A binding curves)", "setting": "[4]; [7]", "value": "No binding above background"}, {"measurement": "verocytotoxin binding to glycolipid", "setting": "[4]; [8]", "value": "No binding"}]}, {"compound": "N[C@H]1[C@H](O[C@H]2[C@H](O)[C@@H](N)[C@H](O[C@H]3[C@H](O)[C@@H](N)C(O)O[C@@H]3CO)O[C@@H]2CO)O[C@H](CO)[C@@H](O)[C@@H]1O", "note": "(stereo partly drawn) [chiotriose]", "values": [{"measurement": "protection against Shiga toxin cytotoxicity", "setting": "[5]", "value": "protects against cytotoxicity"}, {"measurement": "effect on Shiga toxin Gb0se3 cer binding", "setting": "[2]", "value": "little effect"}]}, {"compound": "CCCCCCCCCCCCC/C=C/[C@@H](O)[C@@H](N)CO[C@@H]1O[C@H](CO)[C@@H](O[C@@H]2O[C@H](CO)[C@H](O[C@H]3O[C@H](CO)[C@H](O)[C@H](O)[C@H]3O)[C@H](O)[C@H]2O)[C@H](O)[C@H]1O", "note": "[deacylated globotriosyl ceramide]", "values": [{"measurement": "amount of purified toxin the assay can detect", "setting": "[6]", "value": "less than 5 pg"}, {"measurement": "effect of deacylation on verocytotoxin binding", "setting": "[6]", "value": "does not inhibit verocytotoxin binding"}]}, {"compound": "CCCCCCCCCCCCCC=CC(O)C(CO[C@@H]1O[C@H](CO)[C@H](O[C@H]2O[C@H](CO)[C@H](O)[C@H](O)[C@H]2O)[C@H](O)[C@H]1O)NC(=O)CCCCCCCCCCCCCCC", "note": "(stereo partly drawn) [galabiosyl ceramide]", "values": [{"measurement": "VT2 binding after digestion with αgalactosidase", "setting": "[1]", "value": "binding is removed"}, {"measurement": "VT2 binding to glycolipid", "setting": "[1]", "value": "binds"}, {"measurement": "VT1 binding to Daudi cell glycolipids", "setting": "[4]; glycolipids contained in Daudi cells", "value": "VT1-binding"}]}, {"compound": "CCCCCCCCCCCCCC=CC(O)C(CO[C@@H]1O[C@H](CO)[C@@H](O[C@@H]2O[C@H](CO)[C@H](O)[C@H](O)[C@H]2O)[C@H](O)[C@H]1O)NC(=O)CCCCCCCCCCCCCCC", "note": "(stereo partly drawn) [LacCer, lactosyl ceramide]", "values": [{"measurement": "VT2 binding to glycolipid", "setting": "[1]", "value": "no binding"}, {"measurement": "verocytotoxin binding above background (125I-Protein A binding curves)", "setting": "[4]; [7]", "value": "No binding above background"}, {"measurement": "verocytotoxin binding to glycolipid", "setting": "[4]; [8]", "value": "No binding"}]}, {"compound": "digalactosyl diglyceride [DGDG]", "values": [{"measurement": "VT2 binding to glycolipid", "setting": "[1]", "value": "loss of VT2 binding; also recorded: do not bind"}, {"measurement": "verocytotoxin binding above background (125I-Protein A binding curves)", "setting": "[4]", "value": "No binding above background"}, {"measurement": "verocytotoxin binding to glycolipid", "setting": "[4]", "value": "unreactive with the toxin"}]}]}
